From patent US8598132B2, “Glycosylated indolocarbazoles, method for obtaining same and uses thereof” (Universidad de Oviedo, priority 2008, dated 2013)

Assays:
Format in all cases: biochemical
[1] = biological target: T1, Dyrk1a (Homo sapiens, UniProt Q13627); assay: LabChip (Caliper) kinase assay, Dyrk1a; settings: for inhibition at 0.01 µM: compound at 10 nM; for inhibition at 0.01 µM / inhibition at 0.1 µM: read-out: remaining kinase activity (in %) / percentage of inhibition; for inhibition at 0.1 µM: compound at 100 nM; for IC50: ATP at Km, read-out: CI50 (the source's name)
T1 construct: purchased Upstate
Procedure: (§1) The analysis of kinase activity described here was performed using LabChip (Caliper Life Sciences), specifically the Caliper LC3000 and the EZ Reader II instruments.
(§2) The kinase assay used measures the conversion of a fluorescent peptide (substrate) to a phosphorylated product. The reaction mixture, in a microplate well, is introduced by a capillary in a chip where the non-phosphorylated substrate and the phosphorylated product are separated by […]. The intensity of the fluorescent signal over time is related to the reaction progress. The phosphorylated product migrates quicker than the non-phosphorylated substrate and the signals of the two forms of the peptide appear as differentiated peaks. The Caliper determines the peak height and calculates the ratio of product to the peak sum (P/(P+S)). This value is used to compare wells with compounds and wells with controls and thus determine the % of inhibition for the given product.
(§3) The followings kinases were used for the enzymatic inhibition studies, between brackets the value of the Michaelis-Menten constant, Km, of the ATP (Adenosine triphosphate) for each kinase, in μM: obtained from Carna Biosciences: MAPKAPK2 (4.6), AurA (3.6), AurB (5), PKCζ (3.8), RSK1 (23.3), PRAK (5), Erk1 (33.4), PKD2 (32.1), CK1d (16.3), CHK1 (33), ABL (61.7), FYN (36), LYNa (17), CHK2 (57.8), MET (79.5), LCK (28.5), SRC (38), GSK3β (7.3), Erk2 (62.1), PKACα (1.7), AKT2 (186.1), INSR (871.8), p38a (396.5), AKT1(48), MSK1 (21.2), PKCβ2 (84.8), ROCK2 (3.3), PIM2 (4.9), AMPK (38.6), KDR (164.8), IRAK4 (196.5), SGK1 (121.8), SYK (33.5); obtained from Invitrogen: CDK2 (57.6), BTK (123), HGK (80); obtained from Upstate: MST2 (36.6), PKGα (16), PAK2 (1.9), IGF1R (320), FGFR1 (171), MARK1 (33), CAMK2δ (22.4), c-TAK1 (66), DYRK1a (18.1), CaMK4 (3.9), FLT3 (350), c-Raf (6.2), P70S6K (95).
(§4) The compounds were dissolved in 100% DMSO and were diluted at 25 times the final concentration desired for the assay. In the case of the determination of Cl50, serial dilutions were made to reach eight concentrations and give rise to the inhibition curve. 1 μL of each concentration is transferred, in duplicate to a 384-well microplate. 12 μL of enzymatic buffer is added to each well containing purified kinase (several suppliers as indicated above), 100 mM HEPES, pH 7.5, 1 mM DTT (Calbiochem), 0.002% Brij-35 (Sigma) and also in presence of 10 mM MgCl2 as cofactor, except for INSR and IRAK4 wherein 10 mM MnCl2 is used instead of MgCl2. For the kinases CAMK26 and CAMK4, 1 mM CaCl2 and 6.7 μg/mL of calmodulin are also added. For KDR kinase, 0.05% of the CHAPSO detergent is added. For the c-Raf kinase, 10 mM MnCl2 is added. For PKCβ2 0.02 μg/mL of PS/PMA is added. For PKGα se 10 μM of cGMP (cyclic guanosine monophosphate) is added. The compound and the enzyme are left for 15 minutes preincubation and, then, the following are added to each well: 12 μL of peptide buffer/ATP containing 100 mM HEPES, pH 7.5, 1.5 μM peptide marker with fluorescein (specific for the corresponding kinase), ATP (at concentration KM), and 0.002% Brij-35 to start the reaction. Generally, the reactions are incubated for 1-1.5 h at ambient temperature to obtain an adequate conversion (15-40%) of the peptide to the phosphorylated product. The reactions were ended by the addition of 45 μL of buffer containing 0 mM EDTA. The microplates were read by the LabChip 3000 using a 12-channel LabChip. The P/(P+S) values were obtained as described above and the CI50 curves were generated using XIfit.
(§5) Table 9a has the 0150 data obtained in pairs of compound-kinase selected from the compounds of formula (VII), (VIII), (IX), (XVI), (XVII) and (XVIII) after taking inhibition measurements at 100 nM and 10 nM. Those couples that provide >70% of inhibition at 10 nM were consider for measuring its IC50. […]

[2] = biological target: T2, HGK (Homo sapiens, UniProt O95819); assay: LabChip (Caliper) kinase assay, HGK; settings: for inhibition at 0.01 µM: compound at 10 nM; for inhibition at 0.01 µM / inhibition at 0.1 µM: read-out: remaining kinase activity (in %) / percentage of inhibition; for inhibition at 0.1 µM: compound at 100 nM; for IC50: ATP at Km, read-out: CI50 (the source's name)
T2 construct: purchased Invitrogen
T2 sequence (O95819 whole entry, species assumed): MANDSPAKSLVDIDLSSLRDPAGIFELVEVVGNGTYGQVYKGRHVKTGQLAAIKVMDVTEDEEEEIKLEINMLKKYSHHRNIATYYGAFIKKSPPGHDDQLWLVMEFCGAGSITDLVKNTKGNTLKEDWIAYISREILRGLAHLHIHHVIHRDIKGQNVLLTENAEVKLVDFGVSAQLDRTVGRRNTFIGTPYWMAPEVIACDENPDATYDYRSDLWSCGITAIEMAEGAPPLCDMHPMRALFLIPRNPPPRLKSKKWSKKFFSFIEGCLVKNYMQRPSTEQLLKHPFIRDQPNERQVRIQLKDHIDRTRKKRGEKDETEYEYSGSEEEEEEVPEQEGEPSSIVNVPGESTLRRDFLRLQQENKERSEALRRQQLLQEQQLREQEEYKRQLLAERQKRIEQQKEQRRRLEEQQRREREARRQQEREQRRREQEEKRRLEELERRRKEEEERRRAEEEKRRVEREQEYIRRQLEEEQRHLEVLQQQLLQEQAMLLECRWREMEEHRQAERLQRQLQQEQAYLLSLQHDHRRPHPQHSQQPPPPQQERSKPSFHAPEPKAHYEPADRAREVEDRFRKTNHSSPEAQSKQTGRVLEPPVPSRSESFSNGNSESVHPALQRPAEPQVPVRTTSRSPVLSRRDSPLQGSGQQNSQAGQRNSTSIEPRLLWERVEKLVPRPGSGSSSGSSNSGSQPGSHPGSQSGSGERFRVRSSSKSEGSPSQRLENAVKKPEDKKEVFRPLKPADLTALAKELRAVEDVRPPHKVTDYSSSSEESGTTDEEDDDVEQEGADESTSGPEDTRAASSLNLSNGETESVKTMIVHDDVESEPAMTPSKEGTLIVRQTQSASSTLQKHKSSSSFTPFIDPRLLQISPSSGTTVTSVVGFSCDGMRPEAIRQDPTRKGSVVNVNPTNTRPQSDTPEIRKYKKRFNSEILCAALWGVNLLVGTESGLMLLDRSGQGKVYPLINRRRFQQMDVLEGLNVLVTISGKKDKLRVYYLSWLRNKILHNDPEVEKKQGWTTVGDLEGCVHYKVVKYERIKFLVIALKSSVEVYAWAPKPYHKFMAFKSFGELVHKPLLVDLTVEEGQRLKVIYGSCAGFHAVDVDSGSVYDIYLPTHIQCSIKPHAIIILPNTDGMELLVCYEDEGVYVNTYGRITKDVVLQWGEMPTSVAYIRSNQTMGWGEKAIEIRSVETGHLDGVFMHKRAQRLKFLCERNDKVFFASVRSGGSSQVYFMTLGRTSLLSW
Procedure: as §1, §2, §3, §4, §5

[3] = biological target: T3, p38a (Homo sapiens, UniProt Q16539); assay: LabChip (Caliper) kinase assay, p38a; settings: read-out: remaining kinase activity (in %) / percentage of inhibition; for inhibition at 0.01 µM: compound at 10 nM; for inhibition at 0.1 µM: compound at 100 nM
T3 construct: purchased Carna Biosciences
T3 sequence (Q16539 whole entry): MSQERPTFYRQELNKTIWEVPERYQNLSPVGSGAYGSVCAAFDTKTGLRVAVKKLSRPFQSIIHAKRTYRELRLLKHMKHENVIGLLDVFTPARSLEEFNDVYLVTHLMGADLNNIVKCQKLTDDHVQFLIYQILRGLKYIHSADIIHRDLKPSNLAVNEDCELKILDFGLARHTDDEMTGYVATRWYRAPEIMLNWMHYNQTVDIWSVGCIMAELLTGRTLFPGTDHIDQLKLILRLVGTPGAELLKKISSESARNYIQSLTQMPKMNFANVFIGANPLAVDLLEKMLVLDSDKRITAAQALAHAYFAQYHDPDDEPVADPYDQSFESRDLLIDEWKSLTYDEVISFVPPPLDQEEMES
Procedure: as §1, §2, §3
as §4, with “XIfit. […]” for “XIfit.”

| SMILES | inhibition at 0.01 µM [1] [%] | inhibition at 0.1 µM [1] [%] | inhibition at 0.01 µM [2] [%] | inhibition at 0.1 µM [2] [%] | inhibition at 0.01 µM [3] [%] | inhibition at 0.1 µM [3] [%] | IC50 [1] [nM] | IC50 [2] [nM] |
| --- | --- | --- | --- | --- | --- | --- | --- | --- |
| C[C@@H]1O[C@@H](n2c3ccccc3c3c4c(c5c6ccccc6[nH]c5c32)C(=O)NC4=O)[C@H](O)[C@H](O)[C@H]1O [formula (III), N^13-1′-β-L-rhamnosylarcyriaflavin] | 87 | 103 | 30 | 89 | 0 | -1 | – | – |
| C[C@@H]1O[C@@H](n2c3ccccc3c3c4c(c5c6ccccc6[nH]c5c32)C(=O)NC4=O)C[C@H](O)[C@H]1O [formula (IV), N^13-1′-β-L-olivosylarcyriaflavin] | 32 | 75 | 9 | 62 | -2 | -2 | – | – |
| C[C@]12O[C@H](C[C@@H](O)[C@H]1O)n1c3ccccc3c3c4c(c5c6ccccc6n2c5c31)C(=O)NC4=O [formula (IX), N^12-5′(S)-N^13-1′-(R)-L-digitoxosylarcyriaflavin] | – | – | – | – | – | – | > 10 | > 10 |
| C[C@@H]1O[C@@H](n2c3ccccc3c3c4c(c5c6ccccc6[nH]c5c32)C(=O)NC4=O)C[C@@H](O)[C@H]1O [formula (V), N^13-1′-β-L-digitoxosylarcyriaflavin] | 49 | 87 | 54 | 90 | 1 | -2 | – | – |
| C[C@H]1O[C@@H](n2c3ccccc3c3c4c(c5c6ccccc6[nH]c5c32)C(=O)NC4=O)C[C@@H](O)[C@@H]1O [formula (VI), N^13-1′-β-D-olivosylarcyriaflavin] | 62 | 94 | 35 | 83 | -1 | -1 | – | – |
| C[C@]12O[C@H]([C@H](O)[C@H](O)[C@H]1O)n1c3ccccc3c3c4c(c5c6ccccc6n2c5c31)C(=O)NC4=O [formula (VII), N^12-5′(S)-N^13-1′-(R)-L-rhamnosylarcyriaflavin] | – | – | – | – | – | – | 4 | 0.78 |
| C[C@@H]1O[C@@H](n2c3ccccc3c3c4c(c5c6ccccc6[nH]c5c32)CNC4=O)[C@H](O)[C@H](O)[C@H]1O [formula (XII), N^13-1′-β-L-rhamnosyl-k252c] | 101 | 115 | 44 | 91 | -1 | 0 | – | – |
| C[C@@H]1O[C@@H](n2c3ccccc3c3c4c(c5c6ccccc6[nH]c5c32)CNC4=O)C[C@H](O)[C@H]1O [formula (XIII), N^13-1′-β-L-olivosyl-k252c] | 42 | 89 | 16 | 76 | -2 | -3 | – | – |
| C[C@@H]1O[C@@H](n2c3ccccc3c3c4c(c5c6ccccc6[nH]c5c32)CNC4=O)C[C@@H](O)[C@H]1O [formula (XIV), N^13-1′-β-L-digitoxosyl-k252c] | 15 | 73 | 20 | 78 | -1 | -2 | – | – |
| C[C@H]1O[C@@H](n2c3ccccc3c3c4c(c5c6ccccc6[nH]c5c32)CNC4=O)C[C@@H](O)[C@@H]1O [formula (XV), N^13-1′-β-D-olivosyl-k252c] | 14 | 50 | 36 | 89 | -1 | -3 | – | – |
| C[C@]12O[C@H](C[C@@H](O)[C@H]1O)n1c3ccccc3c3c4c(c5c6ccccc6n2c5c31)CNC4=O [formula (XVIII), N^12-5′(S)-N^13-1′-(R)-L-digitoxosyl-k252c] | – | – | – | – | – | – | > 100 | > 10 |
